Laboratory results from US8940739B2, “Compound of a reverse-turn mimetic and a production method and use therefor” (JW Pharmaceutical Corporation, priority 2010, dated 2015).

tested on: MV-4-11 (human, Acute Myeloid Leukemia cell line) cells; assay: Cell growth inhibition assay, GI50 of MV-4-11; type: cell-based; settings: Homo sapiens, MV4-11, 72 h, MV-4-11 cells
Method: The anti-proliferative activity (cell growth inhibition assay) of the compounds according to the present invention against AML (Acute Myeloid Leukemia) cancer cells was measured. […] The lower the GI50 value, the higher the anti-proliferative activity.
A cell growth Inhibition assay was performed to investigate the rate of inhibition of cell proliferation by the compounds of the present invention. MV-4-11 (human, Acute Myeloid Leukemia cell line) cells were cultured in Iscove's modified Dulbecco's medium (IMDM) including 10% fetal bovine serum (FBS), 1× penicillin/streptomycin (10,000 units/ml Penicillin, […] Streptomycin in 0.85% NaCl). MV-4-11 cells were harvested with the IMDM and 5×10^4 cells/well were transferred to each well of 96-well culture plates (Nunc, #167008).
The compounds of Examples 1 to 5 were exposed to serial dilution and duplicated for each concentration. For the serial dilution, the compounds of the present invention were repeatedly diluted with the same volume of media onto 96-well assay block (costar, #3956). After the dilution, each compound was added to each well.
Also, the background absorbance was measured during the treatment with the test compounds by replacing the test compound with IMDM in the negative control plate. The plates were incubated for three days (72 hours) at 37 in the humidified incubator containing 5% CO2. On the last day, 20 µl of a CellTiter 96 Aqueous One Solution (Promega #G3581) was added to the culture in each well and the plates were incubated for a few hours at 37 in the humidified incubator containing 5% CO2. After the incubation, the absorbance of each cell was measured at 490 nm using an EnVision (Perkinelmer, USA).
The GI50 values were calculated using a Prism 3.0 program.

Row | Compound | GI50
1 | C=CCN1CC(=O)N2[C@@H](Cc3ccc(O)cc3)C(=O)N(Cc3cccc4c(-c5ccc(NC(=O)Nc6ccc(N7CCN(C)CC7)nc6)cc5)cn(C)c34)C[C@@H]2N1C(=O)NCc1ccccc1 [Compound D-78] | 1.5 nM
2 | C=CCN1CC(=O)N2[C@@H](Cc3ccc(O)cc3)C(=O)N(Cc3cccc4c(-c5cccc(C(=O)N6CCN(C)CC6)c5)cn(C)c34)C[C@@H]2N1C(=O)NCc1ccccc1 [Compound D-2] | 1.3 nM
3 | C=CCN1CC(=O)N2[C@@H](Cc3ccc(O)cc3)C(=O)N(Cc3cccc4c(-c5ccc(C(=O)NC6CCN(C)CC6)o5)cn(C)c34)C[C@@H]2N1C(=O)NCc1ccccc1 [Compound D-103] | 10.8 nM
4 | C=CCN1CC(=O)N2[C@@H](Cc3ccc(O)cc3)C(=O)N(Cc3cccc4c(-c5ccc(C(N)=O)cc5)cn(C)c34)C[C@@H]2N1C(=O)NCc1ccccc1 [Compound D-7] | 1.2 nM
5 | C=CCN1CC(=O)N2[C@@H](Cc3ccc(O)cc3)C(=O)N(Cc3cccc4c(-c5ccc(C(=O)NN6CCOCC6)cc5)cn(C)c34)C[C@@H]2N1C(=O)NCc1ccccc1 [Compound D-43] | 1.2 nM
6 | C=CCN1CC(=O)N2[C@@H](Cc3ccc(O)cc3)C(=O)N(Cc3cccc4c(-c5ccc(C(=O)Nc6ccc(CN)cc6)cc5)cn(C)c34)C[C@@H]2N1C(=O)NCc1ccccc1 [Compound D-19] | 2 nM
7 | C=CCN1CC(=O)N2[C@@H](Cc3ccc(O)cc3)C(=O)N(Cc3cccc4c(-c5ccc(NC(=O)N6CCC(N7CCOCC7)CC6)cc5)cn(C)c34)C[C@@H]2N1C(=O)NCc1ccccc1 [Compound D-64] | 1.2 nM
8 | C=CCN1CC(=O)N2[C@@H](Cc3ccc(O)cc3)C(=O)N(Cc3cccc4c(-c5ccc(NC(=O)c6ccc(CN(C)C)cc6)cc5)cn(C)c34)C[C@@H]2N1C(=O)NCc1ccccc1 [Compound D-54] | 1.2 nM
9 | C=CCN1CC(=O)N2[C@@H](Cc3ccc(O)cc3)C(=O)N(Cc3cccc4c(-c5ccc(NC(=O)Nc6ccncn6)cc5)cn(C)c34)C[C@@H]2N1C(=O)NCc1ccccc1 [Compound D-81] | 9.9 nM
10 | C=CCN1CC(=O)N2[C@@H](Cc3ccc(O)cc3)C(=O)N(Cc3cccc4c(-c5ccc(C(=O)NNCC(F)(F)F)cc5)cn(C)c34)C[C@@H]2N1C(=O)NCc1ccccc1 [Compound D-37] | 1.3 nM
11 | C=CCN1CC(=O)N2[C@@H](Cc3ccc(O)cc3)C(=O)N(Cc3cccc4c(-c5ccc(NC(=O)N6CCN(C)CC6)cc5)cn(C)c34)C[C@@H]2N1C(=O)NCc1ccccc1 [Compound D-67] | 1.3 nM
12 | C=CCN1CC(=O)N2[C@@H](Cc3ccc(O)cc3)C(=O)N(Cc3cccc4c(-c5cccc(C(=O)NC6CC6)c5)cn(C)c34)C[C@@H]2N1C(=O)NCc1ccccc1 [Compound D-29] | 1.3 nM
13 | C=CCN1CC(=O)N2[C@@H](Cc3ccc(O)cc3)C(=O)N(Cc3cccc4c(-c5cccc(C(=O)N6CCOCC6)c5)cn(C)c34)C[C@@H]2N1C(=O)NCc1ccccc1 [Compound D-1] | 1.8 nM
14 | C=CCN1CC(=O)N2[C@@H](Cc3ccc(O)cc3)C(=O)N(Cc3cccc4c(-c5ccc(NC(=O)NC(C)C)nc5)cn(C)c34)C[C@@H]2N1C(=O)NCc1ccccc1 [Compound D-99] | 2.7 nM
15 | C=CCN1CC(=O)N2[C@@H](Cc3ccc(O)cc3)C(=O)N(Cc3cccc4c(-c5ccc(C(=O)NOC(C)(C)C)cc5)cn(C)c34)C[C@@H]2N1C(=O)NCc1ccccc1 [Compound D-46] | 3.4 nM
16 | C=CCN1CC(=O)N2[C@@H](Cc3ccc(O)cc3)C(=O)N(Cc3cccc4c(-c5ccc(NC(=O)NC6CCN(C(C)=O)CC6)cc5)cn(C)c34)C[C@@H]2N1C(=O)NCc1ccccc1 [Compound D-84] | 1.7 nM
17 | C=CCN1CC(=O)N2[C@@H](Cc3ccc(O)cc3)C(=O)N(Cc3cccc4c(-c5ccc(C(=O)N(N)C(C)C)cc5)cn(C)c34)C[C@@H]2N1C(=O)NCc1ccccc1 [Compound D-42] | 1.8 nM
18 | C=CCN1CC(=O)N2[C@@H](Cc3ccc(O)cc3)C(=O)N(Cc3cccc4c(-c5ccc(NC(=O)C6CCN(C(C)=O)CC6)cc5)cn(C)c34)C[C@@H]2N1C(=O)NCc1ccccc1 [Compound D-61] | 1.3 nM
19 | C=CCN1CC(=O)N2C(CN(Cc3cccc4c(-c5ccc(NC(=O)C6CCN(C)CC6)cc5)cn(C)c34)C(=O)[C@@H]2Cc2ccc(O)cc2)N1C(=O)NCc1ccccc1 (stereo partly drawn) [Compound D-60] | 1.1 nM
20 | C=CCN1CC(=O)N2[C@@H](Cc3ccc(O)cc3)C(=O)N(Cc3cccc4c(-c5ccc(NC(=O)NC6CCCCC6)nc5)cn(C)c34)C[C@@H]2N1C(=O)NCc1ccccc1 [Compound D-92] | 19 nM
21 | C=CCN1CC(=O)N2[C@@H](Cc3ccc(O)cc3)C(=O)N(Cc3cccc4c(-c5ccc(C(=O)NN(C)C)cc5)cn(C)c34)C[C@@H]2N1C(=O)NCc1ccccc1 [Compound D-36] | 1.2 nM

The next lines start with the values.

Row | GI50 | Compound
22 | 8 nM | C=CCN1CC(=O)N2C(CN(Cc3cccc4c(C(=O)Nc5ccc(O)cc5)cn(C)c34)C(=O)[C@@H]2Cc2ccc(O)cc2)N1C(=O)NCc1ccccc1 (stereo partly shown) [Compound G-2]
23 | 4.5 nM | C=CCN1CC(=O)N2[C@@H](Cc3ccc(O)cc3)C(=O)N(Cc3cccc4c(C(=O)NCc5cccc(C)n5)cn(C)c34)C[C@@H]2N1C(=O)NCc1ccccc1 [Compound F-44]
24 | 1.3 nM | C=CCN1CC(=O)N2C(CN(Cc3cccc4c(C(=O)Nc5ccc(N6CCC(N7CCOCC7)CC6)nc5)cn(C)c34)C(=O)[C@@H]2Cc2ccc(O)cc2)N1C(=O)NCc1ccccc1 (stereo partly shown) [Compound G-56]
25 | 5.1 nM | C=CCN1CC(=O)N2[C@@H](Cc3ccc(O)cc3)C(=O)N(Cc3cccc4c(C(=O)N5CCN(Cc6cccc(OC)c6)CC5)cn(C)c34)C[C@@H]2N1C(=O)NCc1ccccc1 [Compound E-35]
26 | 8.9 nM | C=CCN1CC(=O)N2[C@@H](Cc3ccc(O)cc3)C(=O)N(Cc3cccc4c(C(=O)N5CCN(C(C)(C)C)CC5)cn(C)c34)C[C@@H]2N1C(=O)NCc1ccccc1 [Compound E-8]
27 | 2 nM | C=CCN1CC(=O)N2[C@@H](Cc3ccc(O)cc3)C(=O)N(Cc3cccc4c(C(=O)N5CCN6CCN(CC7CCCCC7)CC6C5)cn(C)c34)C[C@@H]2N1C(=O)NCc1ccccc1 (stereo partly shown) [Compound E-46]
28 | 1.7 nM | C=CCN1CC(=O)N2C(CN(Cc3cccc4c(C(=O)Nc5ccc(N(C)CCCO)nc5)cn(C)c34)C(=O)[C@@H]2Cc2ccc(O)cc2)N1C(=O)NCc1ccccc1 (stereo partly shown) [Compound G-20]
29 | 6 nM | C=CCN1CC(=O)N2[C@@H](Cc3ccc(O)cc3)C(=O)N(Cc3cccc4c(C(=O)N5CCN(Cc6cccc(C)n6)CC5)cn(C)c34)C[C@@H]2N1C(=O)NCc1ccccc1 [Compound E-31]
30 | 10.4 nM | C=CCN1CC(=O)N2[C@@H](Cc3ccc(O)cc3)C(=O)N(Cc3cccc4c(C(=O)N(C)CCNC5CC5)cn(C)c34)C[C@@H]2N1C(=O)NCc1ccccc1 [Compound F-11]
31 | 5.8 nM | C=CCN1CC(=O)N2[C@@H](Cc3ccc(O)cc3)C(=O)N(Cc3cccc4c(C(=O)N5CCN(C(=O)OC(C)(C)C)CC5)cn(C)c34)C[C@@H]2N1C(=O)NCc1ccccc1 [Compound E-1]
32 | 6.9 nM | C=CCN1CC(=O)N2[C@@H](Cc3ccc(O)cc3)C(=O)N(Cc3cccc4c(C(=O)N5CCN6CCN(CC7CCC7)CC6C5)cn(C)c34)C[C@@H]2N1C(=O)NCc1ccccc1 (stereo partly shown) [Compound E-49]
33 | 2 nM | C=CCN1CC(=O)N2[C@@H](Cc3ccc(O)cc3)C(=O)N(Cc3cccc4c(C(=O)N(C)CC(C)(C)CO)cn(C)c34)C[C@@H]2N1C(=O)NCc1ccccc1 [Compound F-8]
34 | 11.6 nM | C=CCN1CC(=O)N2[C@@H](Cc3ccc(O)cc3)C(=O)N(Cc3cccc4c(C(=O)N(C)Cc5cccnc5)cn(C)c34)C[C@@H]2N1C(=O)NCc1ccccc1 [Compound F-41]
